From US4954485A, “2',3'-dideoxy-4-thio-uridine derivatives, process for their preparation and antivirus agents using them” (priority 1987, dated 1990)
Like-named read-outs stand apart in the source and are kept apart here.

Assays:
Type in all cases: cell-based
[1] = test system: Moloney-murine leukemia virus; assay: Antivirus effect on Moloney-murine leukemia virus in SC-1 cells (method of Rowe et al), Table 1
Source text: (§1) The antivirus effect of the compound of general formula [II']of the invention was ascertained according to the test method by Rowe et al (J. W. Virology 1970, 42, 1136).
(§2) Virus: Moloney-murine leukemia virus.

Rous sarcoma virus (RSV) = assay: Effect on Rous sarcoma virus (RSV): inhibition of transformation of chick embryo fibroblast, Table 2; conditions: 4TO7, RSV infected about 30 minutes, judged under microscope after 4 to 7 days, concentration at which transformation was inhibited, read-out: Antivirus effect (on RSV), Concentration
Experimental: EXAMPLE 2. EFFECT ON ROUS SARCOMA VIRUS (RSV) Employing cultured cells of the first generation (chick embryo fibroblast),RSV was infected for about 30 minutes. To this were added the samples diluted stepwise, and, after 4 to 7 days, which stage the transformation of cells due to RSV infection was inhibited at was judged under microscope.

[2] = test system: HIV (human immunodeficiency virus); assay: Effect on HIV: inhibition of transformation of MT-4 cells due to HIV infection, Table 3; conditions: Human immunodeficiency virus 1, MT4, 72 h, HIV infected 1 hour at 37° C, judged under microscope after 3 days, concentration at which transformation was inhibited, read-out: Antivirus effect (on HIV), Concentration
Experimental: EFFECT ON HIV (HUMAN IMMUNODEFICIENCY VIRUS)
(§3) Employing MT-4 cells, HIV was infected for 1 hour at 37° C. To this were added the samples diluted stepwise, and, after 3 days, which stage the transformation of cells due to HIV infection was inhibited at was judged under microscope.

[3] = test system: Moloney-murine leukemia virus, RSV, HIV; assay: Antivirus effect, summary of Table 1 through 3; conditions: as shown in Table 1 through 3
Experimental: as §1, §2
Employing cultured cells of the first generation (chick embryo fibroblast),RSV was infected for about 30 minutes. To this were added the samples diluted stepwise, and, after 4 to 7 days, which stage the transformation of cells due to RSV infection was inhibited at was judged under microscope.
as §3

[4] = Moloney-murine leukemia virus, SC-1 cells, read-out: ED50 (the source's name)

SMILES	EC50 [1, 4]	minimal effective concentration (Rous sarcoma virus (RSV))	minimal effective concentration [2]	EC50 ([1]; SC-1, read-out: ED50)	antivirus effect compared with DDC [3]
Nc1ccn([C@H]2CC[C@@H](CO)O2)c(=O)n1 [DDC, 2',3Dideoxy-cytidine]	4 µM	0.5 to 1 µg/mL	1 µg/mL	–	–
Cc1cn([C@H]2C[C@H](N=[N+]=[N-])[C@@H](CO)O2)c(=O)[nH]c1=O [AZT, 3Azido-3deoxy-thymidine]	–	–	–	0.02 µM	–
O=c1[nH]c(=S)ccn1[C@H]1CC[C@@H](CO)O1 [Compound of invention, 2',3'-dideoxy-4-thio-uridine]	3.7 µM	5 to 10 µg/mL	10 µg/mL	–	excellent antivirus effect similar to that of DDC
